Test results: the METLIN SMRT retention time set (Domingo-Almenara et al. 2019)

Assay: gradient 5% acetonitrile 3 min, to 50% in 2 min, to 85% in 15 min, held 3 min, 100 µL/min
Settings: column: Zorbax Extend-C18 2.1 x 50 mm; eluents: water / acetonitrile, 0.1% formic acid
Method in brief: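 The mobile phases were water and acetonitrile, each with 0.1% formic acid, pumped at 100 μL/min through a Zorbax Extend-C18 column (2.1 × 50 mm, 1.8 μm). Pure standards were injected as mixtures of ~100 molecules and detected by a quadrupole time-of-flight mass spectrometer in positive and negative ionization mode. Retention time came from computationally picked adduct peaks, each inspected by hand.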

Structure (SMILES)	RP-LC retention time [s]
Cc1nc2c(sc3nc(-c4ccccc4)ccc32)c(=O)n1CC(=O)Nc1ccc(Cl)cc1	1120
CCCOC(=O)c1cccc(Nc2nc(-c3cccnc3)nc3ccccc23)c1	889
COC(=O)c1ccc(NC(=O)N(C)c2ccccc2)cc1	771
CCCS(=O)(=O)N1CC(n2cc(C(=O)N3CCCC3)nn2)C1	654
O=C(NCc1ccc2c(c1)N(C(=O)c1ccccc1)CC2)c1cccs1	814
CC1CCN(CCNc2ccc(-c3nc(-c4ccc(F)cc4)no3)cn2)CC1	777
CCCc1noc(-c2ccc(-n3ncc(C(=O)NCC)c3C)nc2)n1	808
Cc1ccc(CNC(=O)C2c3ccccc3CC(=O)N2C)cc1 (centres undefined)	748
O=C(Nc1cnc(N2CCCC2)nc1)c1ccc(F)c(F)c1	748
Cc1ccc(F)cc1NS(=O)(=O)c1cn(CC(C)C)c2ncccc12	993
COc1ccccc1OCC(=O)Nc1ccc2c(c1)N(C(=O)c1ccco1)CCC2	881
CN1C(=O)c2cccn2CC1CNS(=O)(=O)c1ccc(F)cc1 (centres undefined)	679
CCOc1ccc(NC(=O)c2noc3c2CCCC3)cc1	958
Cc1ccc(NC(=O)Cn2cnc3nc(N4CCCC(C(=O)NC5CC5)C4)sc3c2=O)cc1F (centres undefined)	703
O=C(Nc1ccc2c(c1)OCO2)C(=O)c1ccc[nH]1	802
Clc1ccc(-c2ccc(CNC3CC3)o2)c(Cl)c1	716
O=C(Nc1ccc2c(c1)OCO2)N1CCC(N2CCN(Cc3ccc(F)cc3)C2=O)CC1	788
Cc1cc(C2CCCN2C(=O)c2cnn3c(C(F)(F)F)cc(-c4ccco4)nc23)on1 (centres undefined)	855
CC(C)CCN(CC(=O)N1CCNCC1)C(=O)c1cccc(Br)c1	654
COc1ccc(Cl)cc1S(=O)(=O)NC1CCCN(c2ccc(=O)[nH]n2)C1 (centres undefined)	698
Cc1ccc(NC(=O)C2(C)Oc3cccnc3NC2=O)cc1 (centres undefined)	727
CCN1CCN(CCNC(=O)C2CCCN(c3nc4cccnc4s3)C2)CC1 (centres undefined)	562
O=C(NCc1ccccc1F)c1cc(N2CCCC2)n2nccc2n1	994

Structure (SMILES)	RP-LC retention time [s]
COCCC(=O)N1CC(F)(F)C[C@H]1c1nc(C2CC2)no1	713
CC(C)c1ccc(S(=O)(=O)N2CCC(n3c(-c4ccoc4)nc4cccnc43)C2)cc1 (centres undefined)	1010
Cc1cc(C)c(S(=O)(=O)N2CCCC(C(=O)Nc3ccc4c(c3)OCO4)C2)c(C)c1 (centres undefined)	974
CC(C)CN1CCn2cc(C(=O)NC3CCCCC3)nc2C1	600
O=C(NC1CCc2nnc(C3CC3)n2CC1)c1cc(C2CC2)[nH]n1 (centres undefined)	581
Cc1nc(-c2csc(S(=O)(=O)N3CCCC(C(=O)Nc4ccc(F)c(Cl)c4)C3)c2)no1 (centres undefined)	1010
CC(C)n1c(N2CCCN(C(=O)c3ccco3)CC2)cc(=O)n(C(C)C)c1=O	756
O=C(Cc1csc(NC(=O)c2ccc[nH]c2=O)n1)NCc1cccs1	626
Cc1ccc(C(=O)N2CCCCC2c2nc(-c3ccncc3)no2)s1 (centres undefined)	904
COc1ccc(Cl)cc1NC(=O)C1CCCN(S(=O)(=O)c2cc(-c3noc(C)n3)cs2)C1 (centres undefined)	1080
CCc1nc2cc(-c3noc(Cc4ccc(OC)c(OC)c4)n3)ccc2o1	956
COc1ccccc1CNC(=O)Cn1cc(C(=O)N2CCCC2)c(=O)c2ccc(C)nc21	681
O=C(COc1ccccc1)Nc1cnc(N2CCOCC2)nc1	746
CCCNC(=O)N(C1CCOCC1)C1CCN(C(=O)CCc2c[nH]c3ccccc23)CC1	730
CCc1nn(CC(=O)N2CCC(C(N)=O)CC2)c(=O)c2cc3sccc3n12	614
Cc1nn(C(=O)c2cccnc2)c(C)c1Sc1ccccc1[N+](=O)[O-]	916
CCOc1ccc(NC(=O)C2(C)Oc3cccnc3N(CC)C2=O)cc1 (centres undefined)	913
Cc1ccc2nc(-c3ccccc3)c(Nc3ccc4c(c3)OCO4)n2c1	717
Cc1cc(S(=O)(=O)N2CC=C(c3cn(C)c4ncccc34)CC2)ccc1F	1050
c1ccc2c(c1)CCN(Cc1nc(-c3ccc(N4CCCC4)nc3)no1)C2	583
COc1cccc(NS(=O)(=O)c2cc(-c3[nH]ncc3C(=O)N(C)C)oc2C)c1	668
CN(Cc1ccccc1)C(=O)c1cccc(NC(=O)[C@H]2[C@@H]3C[C@@H]4[C@H]2C(=O)O[C@@H]4C3)c1	766
O=C(NCc1ccccc1)C1CCCN(c2ncnc3c2oc2ccccc23)C1 (centres undefined)	754

Structure (SMILES)	RP-LC retention time [s]
COc1ccc(CN2CCC([C@@H]3CNC[C@H]3CO)CC2)cc1Cn1ccnc1	572
O=C(c1ccc(-c2ccc3c(c2)CCN3S(=O)(=O)c2ccccc2F)cc1)N1CCOCC1	899
CCSc1nnc(-c2nn(C)c3c2CN(S(=O)(=O)c2ccc(Cl)cc2)CC3)n1CC	983
COCCCNC(=O)c1cc(-c2ccc(OC)cc2)nc2n[nH]c(-c3ccccc3)c12	789
Cc1nn(C2CCS(=O)(=O)C2)c(C)c1N1CCN(S(=O)(=O)c2cccnc2)CC1 (centres undefined)	679
COc1ccc(CNC(=O)C2CC(=O)N(CCc3c[nH]c4ccc(Cl)cc34)C2)cc1 (centres undefined)	834
Cc1cc2c(c(=O)n(-c3ccc(F)cc3)c(=O)n2CC(=O)Nc2cc(F)ccc2F)n1C	875
CC1(C(=O)NCc2ccc(Cl)cc2)CN(S(C)(=O)=O)CC(=O)N1CCCc1ccccc1 (centres undefined)	953
Clc1ccccc1-c1nc(-c2ccncc2)no1	1040
COC(=O)c1cc2c(cc1NC(=O)C1CCCN(c3ncnc4c3nc3n4CCCCC3)C1)OCO2 (centres undefined)	943
Cc1ccc(S(=O)(=O)N2CCC(CCNC(=O)NC(C)(C)C)CC2)cc1	885
Cc1ccc(CNC(=O)Cn2c(C)cc(-c3nnc(-c4ccc(F)cc4)o3)c2C)cc1	982
Cc1ccc(N2CC(c3nc(-c4ccc5c(c4)ncn5C)no3)CC2=O)cc1C (centres undefined)	702
CCn1cc(-c2ccc(Cl)cc2)cc1C(=O)N1CCC2(CC1)OCCO2	1040
CCc1ccc(S(=O)(=O)N2CCC3(CC2)NCCN=C3NCc2ccccc2)cc1	742
O=C1COc2ccc(S(=O)(=O)N3CCC(C(=O)NC4CCCc5ccccc54)CC3)cc2N1 (centres undefined)	814
COc1ccc(NC(=O)Cc2nnc(-c3ccc4ncccc4c3)o2)cc1Cl	728
Cc1nccn1Cc1noc(-c2cccc(F)c2)n1	611
Cn1cc(-c2ccc3nnc(Sc4ccc5ncccc5c4)n3n2)cn1	661
CCOc1ccc(C(=O)NC2CCN(c3cc(-c4ccccc4)[nH]n3)C2)cc1OCC (centres undefined)	748
CCOc1ccc(NC(=O)c2cnc(N3CCN(CC)CC3)nc2N)cc1	609
Cc1nc(-c2ccc3c(c2)CCN3C(=O)c2ccc(F)cc2)cs1	961
COc1ccc(-c2nc(NCCCN3CCC(N4CCCCC4)CC3)c3ccccc3n2)cc1	1210

Structure (SMILES)	RP-LC retention time [s]
Cc1noc(C)c1S(=O)(=O)N1CC(c2nc(-c3ccncc3)nn2C)C1	618
COCC(=O)N1CCCN(C2=NS(=O)(=O)C(c3ccc(F)cc3)=C2C)CC1	677
CC1(C)Oc2ccc(C#N)cc2[C@@H](OC2=CC(=O)CC2)[C@@H]1O	746
Cc1cc(=O)n(CC(=O)Nc2cccc(C#N)c2)c(N2CCc3ccccc3C2)n1	772
O=C(CN1C[C@H]2C[C@H](C1)[C@H]1CCCC(=O)N1C2)NCC1CC1	563
CCOC(=O)c1ccc(N2C=C(C(=O)N3CCCC3)S(=O)(=O)c3ccc(Cl)cc32)cc1	950
Cc1ccc(CNC(=O)c2cccn2Cc2noc(C)n2)cc1	828
COc1ccc(Br)c(CC2C(=O)Nc3ccccc32)c1 (centres undefined)	944
COc1ccc(-c2noc(-c3ccc(N4CCN(C(=O)c5ccco5)CC4)nc3)n2)cc1	989
Cn1cc(C(CNC(=O)Nc2cccc(F)c2)c2cccnc2)c2ccccc21 (centres undefined)	660
O=C(Nc1ccc(Cl)cc1)C1CCCN(c2nc3ccsc3c(=O)n2Cc2ccc(F)cc2)C1 (centres undefined)	1110
CCOc1ccc(-c2csc(Nc3ccc(C)cn3)n2)cc1	949
CCc1ccc(-c2noc(CN3C(=O)COc4cc(C)ccc43)n2)cc1	1170
CCOC(=O)c1cnc2nc(C)ccc2c1Nc1ccc(F)c(C#N)c1	684
Cc1cccc(N2C(=O)CN(Cc3ccco3)[C@H]3CS(=O)(=O)C[C@H]32)c1	744
Cc1oc2nc3c(c(=O)n(CC(=O)OCc4ccccc4)c(=O)n3C)n2c1C	840
CCOCCCNC(=O)C1CCN(c2nnc3c(Cl)cccn23)CC1	610
Cc1cnn(CC(=O)N2CCCn3ccnc3C2C2CCCC2)c1 (centres undefined)	597
[O-][n+]1ccc(CC(O)(C(F)(F)F)C(F)(F)F)cc1	674
COc1ccc(N2C(=O)CCC(C(=O)N3CCOCC3)C2c2ccc(OC)c(OC)c2)cc1 (centres undefined)	619
